Test results: PMC8799717, “Pharmacological targeting PIKfyve and tubulin as an effective treatment strategy for double-hit lymphoma” (Cell Death Discovery, 2022)

What was measured:
Test in all cases: biochemical
Set-up in all cases: KINOMEscan active-site-directed competition binding panel, 468 kinases, percent of DMSO control at 1 uM
Details in all cases: KINOMEscan binding, percent of DMSO control; read-out: Ctrl%
ALK(L1196M) = ALK(L1196M) (Homo sapiens, UniProt Q9UM73, L1196M)
PRKG1 = PRKG1 (Homo sapiens, UniProt Q13976)
TEC = TEC (Homo sapiens, UniProt P42680)
MAPKAPK2 = MAPKAPK2 (Homo sapiens, UniProt P49137)
WEE1 = WEE1 (Homo sapiens, UniProt P30291)
MINK = biological target: T1, MINK (Homo sapiens, UniProt Q8N4C8)
T1 construct: gene MINK1

CLK3 = CLK3 (Homo sapiens, UniProt P49761)
FLT3(ITD) = FLT3(ITD) (Homo sapiens, UniProt P36888, ITD)
EPHA2 = EPHA2 (Homo sapiens, UniProt P29317)
MUSK = MUSK (Homo sapiens, UniProt O15146)
HIPK2 = HIPK2 (Homo sapiens, UniProt Q9H2X6)
ERN1 = ERN1 (Homo sapiens, UniProt O75460)
CAMK1B = biological target: T2, CAMK1B (Homo sapiens, UniProt Q6P2M8)
T2 construct: gene PNCK

BRSK1 = BRSK1 (Homo sapiens, UniProt Q8TDC3)
BUB1 = BUB1 (Homo sapiens, UniProt O43683)
LATS1 = LATS1 (Homo sapiens, UniProt O95835)
TTK = TTK (Homo sapiens, UniProt P33981)
BTK = BTK (Homo sapiens, UniProt Q06187)
WNK4 = WNK4 (Homo sapiens, UniProt Q96J92)
IGF1R = IGF1R (Homo sapiens, UniProt P08069)
ACVR2A = ACVR2A (Homo sapiens, UniProt P27037)
MST4 = biological target: T3, MST4 (Homo sapiens, UniProt Q9P289)
T3 construct: gene STK26

AKT1 = AKT1 (Homo sapiens, UniProt P31749)
TAK1 = biological target: T4, TAK1 (Homo sapiens, UniProt O43318)
T4 construct: gene MAP3K7

Chain of BTK (Q06187 whole entry): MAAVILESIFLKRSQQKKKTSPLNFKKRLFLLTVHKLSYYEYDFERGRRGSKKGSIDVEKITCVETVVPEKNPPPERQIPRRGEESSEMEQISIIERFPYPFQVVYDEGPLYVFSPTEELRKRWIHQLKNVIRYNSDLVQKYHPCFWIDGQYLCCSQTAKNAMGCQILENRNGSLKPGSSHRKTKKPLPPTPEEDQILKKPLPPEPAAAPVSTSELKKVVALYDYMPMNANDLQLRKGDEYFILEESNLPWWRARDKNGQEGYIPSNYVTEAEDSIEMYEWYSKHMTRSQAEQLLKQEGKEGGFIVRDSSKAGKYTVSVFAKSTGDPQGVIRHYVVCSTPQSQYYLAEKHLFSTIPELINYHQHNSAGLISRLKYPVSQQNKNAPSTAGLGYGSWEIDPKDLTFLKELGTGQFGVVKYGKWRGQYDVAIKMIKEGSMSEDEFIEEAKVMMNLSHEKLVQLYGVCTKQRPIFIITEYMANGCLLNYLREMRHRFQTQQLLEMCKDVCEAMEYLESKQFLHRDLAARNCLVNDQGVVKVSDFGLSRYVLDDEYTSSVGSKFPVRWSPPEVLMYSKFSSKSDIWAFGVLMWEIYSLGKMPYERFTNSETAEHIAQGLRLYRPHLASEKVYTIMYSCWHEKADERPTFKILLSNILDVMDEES
Chain of MUSK (O15146 whole entry): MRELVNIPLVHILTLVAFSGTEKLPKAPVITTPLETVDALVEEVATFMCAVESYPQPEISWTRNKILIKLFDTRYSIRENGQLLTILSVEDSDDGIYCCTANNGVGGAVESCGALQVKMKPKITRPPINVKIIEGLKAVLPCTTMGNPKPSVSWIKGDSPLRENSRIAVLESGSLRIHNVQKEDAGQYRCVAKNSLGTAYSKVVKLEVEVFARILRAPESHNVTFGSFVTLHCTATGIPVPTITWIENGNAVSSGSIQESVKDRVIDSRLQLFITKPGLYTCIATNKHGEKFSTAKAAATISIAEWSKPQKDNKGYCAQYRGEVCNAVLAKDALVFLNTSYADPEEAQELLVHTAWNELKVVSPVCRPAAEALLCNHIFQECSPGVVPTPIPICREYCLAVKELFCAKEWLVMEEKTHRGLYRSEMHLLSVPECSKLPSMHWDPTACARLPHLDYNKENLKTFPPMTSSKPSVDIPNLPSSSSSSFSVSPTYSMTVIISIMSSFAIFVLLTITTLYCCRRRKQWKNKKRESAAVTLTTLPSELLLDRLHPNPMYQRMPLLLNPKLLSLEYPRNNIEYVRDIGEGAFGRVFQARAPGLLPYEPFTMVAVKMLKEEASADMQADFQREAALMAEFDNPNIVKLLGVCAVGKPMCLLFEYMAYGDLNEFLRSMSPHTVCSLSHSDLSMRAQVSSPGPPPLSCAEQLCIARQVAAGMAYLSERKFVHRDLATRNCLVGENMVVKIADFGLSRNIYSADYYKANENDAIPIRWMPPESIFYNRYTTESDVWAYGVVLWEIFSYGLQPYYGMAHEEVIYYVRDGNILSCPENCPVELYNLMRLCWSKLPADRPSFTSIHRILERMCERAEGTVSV
Chain of BUB1 (O43683 whole entry): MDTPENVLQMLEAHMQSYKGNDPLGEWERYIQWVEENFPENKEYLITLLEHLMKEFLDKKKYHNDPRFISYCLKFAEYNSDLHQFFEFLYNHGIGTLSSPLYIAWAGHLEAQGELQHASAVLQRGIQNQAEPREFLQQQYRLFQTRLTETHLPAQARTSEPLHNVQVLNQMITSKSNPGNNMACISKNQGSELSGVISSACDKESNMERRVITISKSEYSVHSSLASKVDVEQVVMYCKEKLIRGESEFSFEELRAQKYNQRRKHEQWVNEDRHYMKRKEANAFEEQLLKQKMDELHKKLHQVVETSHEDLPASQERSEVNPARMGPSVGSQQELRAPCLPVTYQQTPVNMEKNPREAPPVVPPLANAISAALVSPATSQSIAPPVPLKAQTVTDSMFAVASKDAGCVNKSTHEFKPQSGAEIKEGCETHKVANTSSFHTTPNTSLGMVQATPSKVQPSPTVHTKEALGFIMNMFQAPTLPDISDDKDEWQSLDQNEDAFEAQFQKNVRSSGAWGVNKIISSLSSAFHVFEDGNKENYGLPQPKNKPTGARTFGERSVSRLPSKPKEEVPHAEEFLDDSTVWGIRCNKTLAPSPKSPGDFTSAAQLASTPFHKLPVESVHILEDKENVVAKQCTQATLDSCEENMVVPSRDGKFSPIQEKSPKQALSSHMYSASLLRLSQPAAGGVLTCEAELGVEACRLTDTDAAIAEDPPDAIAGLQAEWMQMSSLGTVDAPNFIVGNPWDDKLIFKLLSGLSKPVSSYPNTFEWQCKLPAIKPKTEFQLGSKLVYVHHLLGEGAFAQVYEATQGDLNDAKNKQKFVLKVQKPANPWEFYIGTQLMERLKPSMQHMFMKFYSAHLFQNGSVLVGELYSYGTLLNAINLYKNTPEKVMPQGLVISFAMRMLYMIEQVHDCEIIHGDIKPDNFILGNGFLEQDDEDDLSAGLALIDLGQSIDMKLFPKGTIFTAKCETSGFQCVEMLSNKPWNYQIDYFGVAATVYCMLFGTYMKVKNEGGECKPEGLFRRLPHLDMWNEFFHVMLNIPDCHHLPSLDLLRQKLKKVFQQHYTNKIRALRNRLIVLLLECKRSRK
Chain of TEC (P42680 whole entry): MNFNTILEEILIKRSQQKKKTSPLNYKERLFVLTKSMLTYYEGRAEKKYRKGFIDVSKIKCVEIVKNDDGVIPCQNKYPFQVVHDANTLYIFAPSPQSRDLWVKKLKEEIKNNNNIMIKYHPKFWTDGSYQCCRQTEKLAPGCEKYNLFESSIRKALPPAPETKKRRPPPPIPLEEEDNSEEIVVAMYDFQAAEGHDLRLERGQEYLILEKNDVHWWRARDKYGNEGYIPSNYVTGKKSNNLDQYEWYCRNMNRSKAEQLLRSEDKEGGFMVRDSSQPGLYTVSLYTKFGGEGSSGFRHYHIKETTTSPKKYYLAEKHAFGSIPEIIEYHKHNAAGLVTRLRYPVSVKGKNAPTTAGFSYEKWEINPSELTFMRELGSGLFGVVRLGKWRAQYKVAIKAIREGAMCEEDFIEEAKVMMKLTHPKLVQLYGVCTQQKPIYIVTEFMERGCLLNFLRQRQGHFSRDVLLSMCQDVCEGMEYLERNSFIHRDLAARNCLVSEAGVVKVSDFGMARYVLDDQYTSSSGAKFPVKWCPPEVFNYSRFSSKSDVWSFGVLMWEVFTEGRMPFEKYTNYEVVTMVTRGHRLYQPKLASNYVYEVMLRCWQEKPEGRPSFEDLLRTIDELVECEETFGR
Chain of ERN1 (O75460 whole entry): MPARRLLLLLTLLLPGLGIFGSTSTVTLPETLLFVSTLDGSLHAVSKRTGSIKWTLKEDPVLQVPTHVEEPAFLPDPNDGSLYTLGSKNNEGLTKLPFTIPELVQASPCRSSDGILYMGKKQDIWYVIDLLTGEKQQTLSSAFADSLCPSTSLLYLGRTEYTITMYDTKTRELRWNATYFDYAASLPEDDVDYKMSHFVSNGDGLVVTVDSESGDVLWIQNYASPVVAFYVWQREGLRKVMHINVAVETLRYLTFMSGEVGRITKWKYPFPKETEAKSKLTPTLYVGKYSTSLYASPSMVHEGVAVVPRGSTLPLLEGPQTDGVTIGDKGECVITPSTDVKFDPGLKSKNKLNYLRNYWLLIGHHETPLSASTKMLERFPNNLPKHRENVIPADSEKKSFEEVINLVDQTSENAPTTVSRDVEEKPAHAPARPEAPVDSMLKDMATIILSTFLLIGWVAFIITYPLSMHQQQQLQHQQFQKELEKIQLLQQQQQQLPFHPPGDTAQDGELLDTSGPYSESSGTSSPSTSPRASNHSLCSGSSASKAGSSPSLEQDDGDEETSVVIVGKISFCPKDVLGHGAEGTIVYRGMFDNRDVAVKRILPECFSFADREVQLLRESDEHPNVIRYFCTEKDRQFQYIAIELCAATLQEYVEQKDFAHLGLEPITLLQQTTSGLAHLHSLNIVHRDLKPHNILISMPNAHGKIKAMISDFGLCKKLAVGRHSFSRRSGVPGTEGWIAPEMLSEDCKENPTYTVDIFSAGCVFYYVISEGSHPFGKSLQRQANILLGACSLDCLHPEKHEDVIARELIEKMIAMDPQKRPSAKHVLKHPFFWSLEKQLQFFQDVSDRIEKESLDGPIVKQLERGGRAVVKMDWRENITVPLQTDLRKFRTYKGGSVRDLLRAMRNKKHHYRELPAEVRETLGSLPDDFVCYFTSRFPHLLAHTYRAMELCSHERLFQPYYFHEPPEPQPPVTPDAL
T2 sequence (Q6P2M8 whole entry): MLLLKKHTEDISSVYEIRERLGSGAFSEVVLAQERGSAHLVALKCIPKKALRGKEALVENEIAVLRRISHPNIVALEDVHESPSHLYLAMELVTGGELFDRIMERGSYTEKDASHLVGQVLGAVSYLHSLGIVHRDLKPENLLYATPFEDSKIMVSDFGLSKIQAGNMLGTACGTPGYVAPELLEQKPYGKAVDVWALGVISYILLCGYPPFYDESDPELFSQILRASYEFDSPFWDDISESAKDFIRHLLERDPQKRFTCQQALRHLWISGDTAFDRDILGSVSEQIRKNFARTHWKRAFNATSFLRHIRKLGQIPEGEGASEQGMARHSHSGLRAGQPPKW
T3 sequence (Q9P289 whole entry): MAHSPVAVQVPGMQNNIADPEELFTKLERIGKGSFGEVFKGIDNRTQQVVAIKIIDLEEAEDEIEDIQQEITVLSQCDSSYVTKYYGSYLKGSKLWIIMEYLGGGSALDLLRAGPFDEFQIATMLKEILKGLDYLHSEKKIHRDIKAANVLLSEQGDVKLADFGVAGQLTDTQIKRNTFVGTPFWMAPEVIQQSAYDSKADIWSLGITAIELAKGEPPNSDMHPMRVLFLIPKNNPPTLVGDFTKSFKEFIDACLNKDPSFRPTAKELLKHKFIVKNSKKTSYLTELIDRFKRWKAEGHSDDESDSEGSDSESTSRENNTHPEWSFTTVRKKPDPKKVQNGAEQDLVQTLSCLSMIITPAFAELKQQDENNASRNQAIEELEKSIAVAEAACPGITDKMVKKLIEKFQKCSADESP

Cc1ccc(NC(=O)c2cccc(C(F)(F)F)c2)cc1Nc1cc(-c2cccnc2)nc2[nH]ccc12 [HZX-02-059]
remaining binding at 1 µM (ALK(L1196M)): 97% | remaining binding at 1 µM (PRKG1): 82% | remaining binding at 1 µM (TEC): 96% | remaining binding at 1 µM (MAPKAPK2): 80% | remaining binding at 1 µM (WEE1): 95% | remaining binding at 1 µM (MINK): 91% | remaining binding at 1 µM (CLK3): 82% | remaining binding at 1 µM (FLT3(ITD)): 79% | remaining binding at 1 µM (EPHA2): 4% | remaining binding at 1 µM (MUSK): 100% | remaining binding at 1 µM (HIPK2): 100% | remaining binding at 1 µM (ERN1): 66% | remaining binding at 1 µM (CAMK1B): 98% | remaining binding at 1 µM (BRSK1): 97% | remaining binding at 1 µM (BUB1): 100% | remaining binding at 1 µM (LATS1): 95% | remaining binding at 1 µM (TTK): 99% | remaining binding at 1 µM (BTK): 100% | remaining binding at 1 µM (WNK4): 100% | remaining binding at 1 µM (IGF1R): 92% | remaining binding at 1 µM (ACVR2A): 75% | remaining binding at 1 µM (MST4): 80% | remaining binding at 1 µM (AKT1): 99% | remaining binding at 1 µM (TAK1): 73%
